Measurements as given in patent publication US5773628A, “1,2-dioxetane compounds with haloalkoxy groups, methods preparation and use” (Tropix, Inc., priority 1994, dated 1998).
“Also recorded” adds a separate entry of the source.

What was measured:
[1] = Base-induced decomposition of hydroxy dioxetanes (first order decay of chemiluminescence); type: physicochemical; conditions: 37° C.; 0.2M 2-methyl-2-amino-1-propanol buffer pH 9.6, 0.88 mM Mg+2, 1.0 mg/mL Enhancer A
Procedure: (§1) Calf intestinal alkaline phosphatase (AP) was obtained from Biozyme (San Diego, Calif.). Other chemical reagents were obtained from Aldrich Chemical Co. (Milwaukee). Nuclear magnetic resonance (NMR) spectra were obtained on a Varian Gemini 300 spectrometer as solutions in D2 O or CDCl3. Chemiluminescence intensities and rate measurements were performed using either a Turner Designs (Sunnyvale, Calif.) model TD-20e luminometer, a Luminoskan luminometer (Helsinki, Finland), a charge-coupled device camera luminometer constructed in the inventors' laboratory or a luminometer constructed in the inventors' laboratory consisting of an electrically heated sample block, an optical fiber and associated optics for light collection and a photomultiplier tube. Temperature control of samples analyzed in the commercial luminometers was achieved by means of a circulating bath connected to the instrument. Quantitative measurement of light intensities on the Turner luminometer was extended beyond the 10^4 linear range of the detector by a neutral density filter. Data collection from each of the instruments was controlled by an Apple MacIntosh SE/30 computer using the LUMISOFT data reduction program (Lumigen).
The first order decay of chemiluminescence of dioxetanes 1 and 3 in 0.2M 2-methyl-2-amino-1-propanol buffer, pH 9.6 containing 0.88 mM Mg^+2 and 1.0 mg/mL of Enhancer A at 37° C. was measured in a luminometer. The half-life of decay of chemiluminescence (t1/2) of dioxetanes 1 and 3 in 0.2M 2-methyl-2-amino-1-propanol buffer, pH 9.6 containing 0.88 mM Mg^+2 and 1.0 mg/mL of Enhancer A correlate with the times required to reach the maximum light intensity (Imax) in the alkaline phosphatase-triggered decomposition of dioxetanes 2 and 5 in the same buffer solution. The half-life of decay of luminescence of the hydroxy dioxetane homologous to a phosphate-protected dioxetane, therefore, is useful for predicting the grow-in kinetics of light emission for phosphatase triggering of the corresponding phosphate dioxetane. In particular, hydroxy dioxetanes which show a faster t1/2 than dioxetane 1 indicate that the corresponding phosphate dioxetanes are expected to reach Imax more quickly. Other hydroxy dioxetanes (7-9) were then examined under the same conditions.

[2] = tested on: Calf intestinal alkaline phosphatase (AP); test: Kinetic profile of alkaline phosphatase-triggered chemiluminescence (time to 95% of maximum intensity); type: biochemical; conditions: for Time to Reach 95% of Maximum Light Intensity from Alkaline Phosphatase-Triggering: 37° C.
Procedure: as §1
The improvement in detection speed afforded by compositions containing the phosphate dioxetane 5 is shown in Table 2 through a comparison with dioxetane 2 of the times to reach 95% of the maximum chemiluminescence intensities produced by reaction with AP. Three different reagent compositions containing either dioxetane 2, 4-methoxy-4-(3-phosphoryloxy-phenyl)spiro[1,2-dioxetane-3,2'-tricyclo-[3.3.1.1^3,7 ]decane], disodium salt, (LUMIGEN PPD, Lumigen, Inc.) or 5 were reacted at 37° C. with AP. Composition A consists of 0.33 mM dioxetane in 0.2M 2-methyl-2-amino-1-propanol buffer (pH 9.6) containing 1.0 mg/mL 1-(tri-n-octylphosphoniummethyl)-4-(tri-n-butylphosphonium-methyl) benzene dichloride (Enhancer A); 100 μL portions were reacted with 3.36×10^-16 mol of enzyme. Composition B consists of 0.33 mM dioxetane in 0.2M 2-methyl-2-amino-1-propanol buffer (pH 9.6) containing 0.5 mg/mL of polyvinylbenzyl-tributylphosphon ium chloride co-polyvinylbenzyltrioctyl-phosphonium chloride (containing a 3:1 ratio of tributyl:trioctyl groups) the preparation of which is described in European Patent Application 561,033 published Sep. 22, 1993 (Enhancer B); 100 μL portions were reacted with 3.36×10^-16 mol of enzyme. Composition C consists of 0.33 mM dioxetane in 0.2M 2-methyl-2-amino-1-propanol buffer (pH 9.6); 500 μL portions were reacted with 1.12×10^-15 mol of enzyme.

[3] = tested on: Calf intestinal alkaline phosphatase (AP); test: Effect of enhancer concentration on AP-induced chemiluminescence intensity and kinetics; comparison of optimized solutions; type: biochemical
Procedure: FIG. 1 is a graph showing the time profiles of the chemiluminescence intensity emitted by 100 μL of a reagent containing dioxetane 5 (4-(2,2,2-trifluoroethoxy)-4-(3-phosphoryloxyphenyl)spiro[1,2-dioxetane-3,2'-tricyclo-[3.3.1.1^3,7 ]decane] disodium salt) and various amounts of an enhancer triggered at 37° C. by addition of 1.12×10^-17 mol of alkaline phosphatase (AP). The reagent consists of a 0.33 mM solution of the dioxetane 5 in 0.2M 2-amino-2-methyl-1-propanol buffer, pH 9.6 containing 0.1, 0.25, 0.5 or 1 mg/mL of 1-(tri-n-octylphosphoniummethyl)-4-(tri-n-butyl-phosphoniummethyl)benzene dichloride (Enhancer A).
FIG. 2 is a graph showing a comparison of the time profile of the chemiluminescence intensity emitted by 100 μL of a reagent containing dioxetane 5 and various amounts of an enhancer triggered at 37° C. by addition of 1.12×10^-17 mol of AP. The reagents consist of a 0.33 mM solution of dioxetane 5 in 0.2M 2-amino-2-methyl-1-propanol buffer, pH 9.6 containing 0.01, 0.025, 0.1 or 0.5 mg/mL of polyvinylbenzyltributylphosphonium chloride co-polyvinylbenzyltri-octylphosphonium chloride (containing a 3:1 ratio of tributyl:trioctyl groups), Enhancer B, the preparation of which is described in European Patent Application 561,033 published Sep. 22, 1993.
FIG. 3 is a graph showing a comparison of the time profile of the chemiluminescence intensity emitted by 100 μL of enhanced reagents containing either dioxetane 2 (LUMIGEN PPD, Lumigen, Inc., Southfield, Mich.) or 5 triggered at 37° C. by addition of 1.12×10^-17 mol of AP. The reagents consist of 1) a 0.33 mM solution of dioxetane 2 in 0.2M 2-amino-2-methyl-1-propanol buffer, pH 9.6 containing 1.0 mg/mL of the enhancer 1-(tri-n-octylphosphoniummethyl)-4-(tri-n-butylphosphoniummethyl) benzene dichloride, and 2) a 0.33 mM solution of dioxetane 5 in 0.2M 2-amino-2-methyl-1-propanol buffer, pH 9.6 containing 0.1 mg/mL of the same enhancer.
FIG. 4 is a graph showing a comparison of the time profile of the chemiluminescence intensity emitted by 100 μL of another pair of enhanced reagents containing either dioxetane 2 or 5 triggered at 37° C. by addition of 1.12×10^-17 mol of AP. The reagents consist of 1) a 0.33 mM solution of dioxetane 2 in 0.2M 2-amino-2-methyl-1-propanol buffer, pH 9.6 containing 0.5 mg/mL of Enhancer B and 2) a 0.33 mM solution of dioxetane 5 in 0.2M 2-amino-2-methyl-1-propanol buffer, pH 9.6 containing 0.25 mg/mL of the same enhancer.
as §1
A concentration dependence study was conducted in an effort to find the optimum amount of enhancer A to use in the alkaline phosphatase-induced chemiluminescent reaction of dioxetane 5. Solutions of dioxetane 5 in 0.2M 2-methyl-2-amino-1-propanol buffer, pH 9.6 containing 0.88 mM Mg^+2 and 1, 0.5, 0.25 or 0.1 mg/mL of Enhancer A were prepared. […]

[4] = tested on: Calf intestinal alkaline phosphatase (AP); test: Relative chemiluminescence quantum yields (total light after complete dephosphorylation by AP); type: biochemical
Procedure: as §1
The relative chemiluminescence quantum yields of dioxetanes 2 and 5 were determined in formulations containing 1 mg/mL or 0.1 mg/mL of Enhancer A in 0.2M 2-amino-2-methyl- 1-propanol buffer, pH 9.6 containing 0.88 mM Mg^+2. A 100 μL aliquot of each reagent was completely dephosphorylated by addition of 3.36×10^-13 mol of alkaline phosphatase. The total amount of light emitted in Relative Light Units (RLU) was integrated until light emission ceased. A similar comparison was also made with 500 μL portions of formulations without any enhancer using 0.75M 2-amino-2-methyl-1-propanol buffer, pH 9.6 containing 0.88 mM Mg^+2.

[5] = tested on: Calf intestinal alkaline phosphatase (AP); test: Chemiluminescent detection of alkaline phosphatase on membrane; type: biochemical; conditions: 1 mg/mL Enhancer A, pH 9.6, 0.33 mM dioxetane, AP 1.1 fmol to 1.1 amol, X-ray film (FIG. 6)
Procedure: FIG. 6 is a digitally scanned image of an X-ray film from an experiment detecting alkaline phosphatase on a membrane with chemiluminescence. Solutions of alkaline phosphatase in water containing from 1.1×10^-15 to 1.1×10^-18 mol were applied to identical nylon membranes (Micron Separations Inc., Westboro, Mass). The membranes were air dried for 5 min and soaked briefly with a reagent containing 1 mg/mL of Enhancer A in 0.2M 2-amino-2-methyl-1-propanol buffer, pH 9.6 containing 0.88 mM MgCl and either 0.33 mM dioxetane 2 or 0.33 mM dioxetane 5. The membranes were placed between transparent plastic sheets and exposed to X-ray film (Kodak X-OMAT AR, Rochester, N.Y.).
Calf intestinal alkaline phosphatase (AP) was obtained from Biozyme (San Diego, Calif.). Other chemical reagents were obtained from Aldrich Chemical Co. (Milwaukee). Nuclear magnetic resonance (NMR) spectra were obtained on a Varian Gemini 300 spectrometer as solutions in D2 O or CDCl3. […] Temperature control of samples analyzed in the commercial luminometers was achieved by means of a circulating bath connected to the instrument. Quantitative measurement of light intensities on the Turner luminometer was extended beyond the 10^4 linear range of the detector by a neutral density filter. […]

[6] = Composition A: 0.33 mM dioxetane, 0.2M 2-methyl-2-amino-1-propanol buffer pH 9.6, 1.0 mg/mL Enhancer A, 100 μL, 3.36×10^-16 mol AP
[7] = Composition B: 0.33 mM dioxetane, buffer pH 9.6, 0.5 mg/mL Enhancer B, 100 μL, 3.36×10^-16 mol AP
[8] = Composition C: 0.33 mM dioxetane, buffer pH 9.6, no enhancer, 500 μL, 1.12×10^-15 mol AP
[9] = Enhancer A 1 mg/mL, 100 μL, 0.2M buffer pH 9.6, 3.36×10^-13 mol AP
[10] = No enhancer, 500 μL, 0.75M 2-amino-2-methyl-1-propanol buffer pH 9.6, 0.88 mM Mg+2

| t1/2 of decay of chemiluminescence [1] [min] | SMILES | Time to Reach 95% of Maximum Light Intensity from Alkaline Phosphatase-Triggering [2, 6] [min] | Time to Reach 95% of Maximum Light Intensity from Alkaline Phosphatase-Triggering [2, 7] [min] | Time to Reach 95% of Maximum Light Intensity from Alkaline Phosphatase-Triggering [2, 8] [min] | Total Light Intensity [4, 9] | Total Light Intensity [4, 10] | also measured |
| --- | --- | --- | --- | --- | --- | --- | --- |
| 15.9 | COC1(c2cccc(O)c2)OOC12C1CC3CC(C1)CC2C3 (stereo not drawn) [Dioxetane 1] |  |  |  |  |  |  |
| 2.0 | Oc1cccc(C2(OCC(F)(F)F)OOC23C2CC4CC(C2)CC3C4)c1 (stereo not drawn) [Dioxetane 3] |  |  |  |  |  |  |

The next lines start with the compound.

| SMILES | t1/2 of decay of chemiluminescence [1] [min] | Time to Reach 95% of Maximum Light Intensity from Alkaline Phosphatase-Triggering [2, 6] [min] | Time to Reach 95% of Maximum Light Intensity from Alkaline Phosphatase-Triggering [2, 7] [min] | Time to Reach 95% of Maximum Light Intensity from Alkaline Phosphatase-Triggering [2, 8] [min] | Total Light Intensity [4, 9] | Total Light Intensity [4, 10] | also measured |
| --- | --- | --- | --- | --- | --- | --- | --- |
| Oc1cccc(C2(OCCF)OOC23C2CC4CC(C2)CC3C4)c1 (stereo not drawn) [Dioxetane 8] | 6.1 |  |  |  |  |  |  |
| O=P(O)(O)Oc1cccc(C2(OCC(F)(F)F)OOC23C2CC4CC(C2)CC3C4)c1 (stereo not drawn) [Dioxetane 5] |  | 6 | 4.3 | 4.5 | 1.23 × 10^7 RLU | 9.65 × 10^4 RLU | Plateau light intensity compared to dioxetane 2 ([2]; Composition A): higher plateau light intensity; Chemiluminescence intensity and time profile compared to dioxetane 2 (1 mg/mL Enhancer A) ([3]; 0.33 mM dioxetane 5 with 0.1 mg/mL Enhancer A, 37° C., 1.12×10^-17 mol AP (FIG. 3)): reaches a significantly higher maximum intensity and reaches a plateau much more rapidly; also recorded: more intense chemiluminescence under these conditions but also a shorter delay until the maximum intensity is reached; Chemiluminescence intensity and time profile compared to dioxetane 2 (0.5 mg/mL Enhancer B) ([3]; 0.33 mM dioxetane 5 with 0.25 mg/mL Enhancer B, 37° C., 1.12×10^-17 mol AP (FIG. 4)): reaches a higher light intensity in the first 15 minutes; also recorded: a higher light intensity within the first 15 min; Plateau light intensity and rise time vs. amount of Enhancer A ([3]; Enhancer A 1, 0.5, 0.25 or 0.1 mg/mL, pH 9.6, 37° C., 1.12×10^-17 mol AP (FIG. 1)): increasingly higher plateau light intensities and slower rise times as the amount of enhancer is reduced; Rise time vs. amount of Enhancer B ([3]; Enhancer B 0.5 to 0.01 mg/mL, pH 9.6, 37° C., 1.12×10^-17 mol AP (FIG. 2)): slower rise times as the amount of enhancer is reduced from 0.5 to 0.01 mg/mL; Total Light Intensity ([4]; Enhancer A 0.1 mg/mL, 100 μL, 0.2M buffer pH 9.6, 3.36×10^-13 mol AP): 1.01 × 10^7 RLU; Total light produced compared to dioxetane 2 ([4]; with or without Enhancer A): produces more light than dioxetane 2; Image intensity and detection sensitivity on nylon membrane compared to dioxetane 2 [5]: more intense images and better detection sensitivity |
| COC1(c2cccc(OP(=O)(O)O)c2)OOC12C1CC3CC(C1)CC2C3 (stereo not drawn) [Dioxetane 2] |  | 32 | 37 | 6 | 9.24 × 10^6 RLU | 4.41 × 10^4 RLU | Rise time to maximum light intensity ([3]; Enhancer B reduced from 3 mg/mL to 0.1 mg/mL): essentially constant at an hour or more; Rise time to maximum light intensity ([3]; all concentrations of Enhancer A from 0.1 mg/mL to 3 mg/mL): an hour or more |
| Oc1cccc(C2(OCC(F)F)OOC23C2CC4CC(C2)CC3C4)c1 (stereo not drawn) [Dioxetane 7] | 2.8 |  |  |  |  |  |  |
